Measurements taken from ChEMBL document CHEMBL3046479, “Preparation and antimicrobial activity evaluation of some new bi- and triheterocyclic azoles” (2013).
Values after ≈ are worked out from the molar mass of the structure shown. Active and inactive are the calls of the source. The rule behind the calls is not given here.

What was measured:
Type in all cases: functional
Candida albicans = assay: Antimicrobial activity against Candida albicans ATCC 60193 assessed as growth inhibition after 18-24 hr by broth double microdilution method
Pseudomonas aeruginosa = assay: Antimicrobial activity against Pseudomonas aeruginosa ATCC 10145 assessed as growth inhibition after 18-24 hr by broth double microdilution method
Escherichia coli = assay: Antimicrobial activity against Escherichia coli ATCC 35218 assessed as growth inhibition after 18-24 hr by broth double microdilution method
[1] = tested on: Mycolicibacterium smegmatis; assay: Antimicrobial activity against Mycobacterium smegmatis ATCC 607 assessed as growth inhibition after 48-72 hr by broth double microdilution method
Saccharomyces cerevisiae = assay: Antimicrobial activity against Saccharomyces cerevisiae RSKK 251 assessed as growth inhibition after 18-24 hr by broth double microdilution method
Bacillus cereus = assay: Antimicrobial activity against Bacillus cereus 709 Roma assessed as growth inhibition after 18-24 hr by broth double microdilution method
Enterococcus faecalis = assay: Antimicrobial activity against Enterococcus faecalis ATCC 29212 assessed as growth inhibition after 18-24 hr by broth double microdilution method
Staphylococcus aureus = assay: Antimicrobial activity against Staphylococcus aureus ATCC 25923 assessed as growth inhibition after 18-24 hr by broth double microdilution method
[2] = tested on: Yersinia pseudotuberculosis; assay: Antimicrobial activity against Yersinia pseudotuberculosis ATCC 911 assessed as growth inhibition after 18-24 hr by broth double microdilution method
Listeria monocytogenes = assay: Antimicrobial activity against Listeria monocytogenes ATCC 43251 assessed as growth inhibition after 18-24 hr by broth double microdilution method

Compound	MIC (Candida albicans) [µg/mL]	MIC (Pseudomonas aeruginosa)	MIC (Escherichia coli)	MIC [1]	MIC (Saccharomyces cerevisiae)	MIC (Bacillus cereus)	MIC (Enterococcus faecalis)	MIC (Staphylococcus aureus)	MIC [2]	MIC (Listeria monocytogenes)
Cc1nn(Cc2nnc(S)n2-c2ccccc2)c(=O)n1/N=C/c1ccncc1	250 (≈ 637 µM)	inactive	inactive	inactive	inactive	inactive	inactive	inactive	inactive	inactive
Cc1nn(-c2ccc([N+](=O)[O-])cc2F)c(=O)n1CCCn1ccnc1	500 (≈ 1440 µM)	inactive	inactive	inactive	500 µg/mL (≈ 1440 µM)	inactive	inactive	inactive	inactive	inactive
COc1ccc(/C=N/NC(=O)Cn2nc(C)n(/N=C/c3ccncc3)c2=O)cc1O	125 (≈ 305 µM)	inactive	inactive	inactive	inactive	inactive	inactive	inactive	inactive	inactive
Cc1nn(-c2ccc(N)cc2F)c(=O)[nH]1	125 (≈ 600 µM)	inactive	inactive	31.3 µg/mL (≈ 150 µM)	500 µg/mL (≈ 2400 µM)	inactive	inactive	inactive	inactive	inactive
